This is an account of results in patent US4877803A, “Bis-dioxopiperazine derivatives and pharmaceutical compositions containing the same” (Zenyaku Kogyo Kabushiki Kaisha, priority 1985, dated 1989).

The subject of data set [1] is P388 lymphocytic leukemia. As to the kind of experiment: Increase in life span on tumor-transplanted mouse (P388). It counts as in vivo, mouse (CDF1). The conditions noted are these: intraperitoneal, 1 day after transplantation and on 5th day. The method, then: (II) Increase in Life Span on Tumor-transplanted Mouse: The treated group to which the compound of the present invention was administered consisted of seven mice, while the control group consisted of ten mice. Six weeks old male mice (CDF1, 25±2 g of body weight) were employed as host animals.
Tumor cells (1.0×10^6) of P388 lymphocytic leukemia were transplanted intraperitoneally into each mouse. The treatment was effected one day after the transplantation and on 5th day by administering prescribed dose of each test compound intraperitoneally to the mice.
Antitumor activity of the test compound was evaluated by the rate of increase in life span (ILS) which was calculated with the following formula. [formula] T': median survival time of treated mice C': median survival time of control mice

Data set [2] concerns P388 lymphocytic leukemia cells. As to the kind of experiment: Growth inhibition of tumor cells in vitro. It is filed as cell-based. The conditions noted are these: Mus musculus, 48 hours at 37° C., read-out: IC50 (50% inhibitory concentration of cell growth). The method, then: (I) Growth Inhibition of Tumor Cells in Vitro:
Tumor cells were collected aseptically with capillary tube from ascites in CDF1 male mice transplanted intraperitoneally with 1×10^6 cells of P388 lymphocytic leukemia 5 days Before. Cell suspension was prepared at 5×10^4 cells/0.5 ml in a RPMI1640 medium supplemented with 10% fetal calf serum, Kanamycin (0.1 mg/ml) and 2-hydroxyethyldisulfide (0.01 mm). Each sample was dissolved or suspended in the medium at a concentration of 1×10^-1 -1×10^-5 mM/ml.
A test tube with Molton stopper loosely involving 0.5 ml each of the cell suspension and the sample suspension was kept for 48 hours at 37° C. in an incubator supplied with air containing 5% carbon dioxide. Then, after addition of 4 ml of 0.25% trypsin solution, the tube was shaken for 5 minutes at 37° C. The cells harvested therefrom was counted by using of a Coulter Counter and the inhibition of cell growth was calculated by the following formula: [formula] T: number of cells in the culture containing test compound. C: number of cells in the culture of control
50% Inhibitory concentration of cell growth (IC50) was calculated based on the inhibition in various concentrations of test compound and is shown in Table I.

Data set [3] can be described thus: Acute toxicity test in mice. The conditions noted are these: mouse, in vivo, ip; male ICR mice, intraperitoneal, observed for 14 days, Litchfield-Wilcoxon method. The method, then: The acute toxicity of the compounds of the present invention was examined by the following test.
The test group to which the compound of the present invention was administered consisted of ten mice. Five weeks old male mice (ICR, 25±2 g of body weight) were employed as test animals.

Structures are written as SMILES.

With `C[C@H]([C@H](C)N1CC(=O)N(CN2CCSCC2)C(=O)C1)N1CC(=O)N(CN2CCSCC2)C(=O)C1` [(2), meso-2,3-bis(4-thiomorpholinomethyl-3,5-dioxopiperazin-1-yl)butane], the “ILS (rate of increase in life span)” value in data set [1] (daily dose 1.8 mg/kg) is recorded as greater than 194%. In addition, in data set [2], the IC50 was found to be 230 nM.
For `CC1CC(C)CN(CN2C(=O)CN([C@H](C)[C@H](C)N3CC(=O)N(CN4CC(C)CC(C)C4)C(=O)C3)CC2=O)C1` (stereo partly drawn) [(5), meso-2,3-bis[4-(3,5-dimethylpiperidinomethyl)-3,5-dioxopiperazin-1-yl]butane], the IC50 in data set [2] came to 12 nM.
In the case of `O=C1CN(CCN2CC(=O)N(CN3CCOCC3)C(=O)C2)CC(=O)N1CN1CCOCC1` [(A), 1,2-bis(4-morpholinomethyl-3,5-dioxopiperazin-1-yl)ethane], the “ILS (rate of increase in life span)” value in data set [1] (daily dose 3.0 mg/kg) is on record as 2%; in data set [1] (daily dose 100 mg/kg (adequate dose)), 60%. The IC50 in data set [2] worked out at 2400 nM.
In the case of `CC(CN1CC(=O)N(CN2CCOCC2)C(=O)C1)N1CC(=O)N(CN2CCOCC2)C(=O)C1` (racemic) [(B), dl-1,2-bis(4-morpholinomethyl-3,5-dioxopiperazin-1-yl)propane], the “ILS (rate of increase in life span)” value in data set [1] (daily dose 3.0 mg/kg) came out at 1%; in data set [1] (daily dose 200 mg/kg (adequate dose)), 47%. For the same compound, in data set [2], the IC50 was found to be 1600 nM.
Consider `C[C@H]([C@H](C)N1CC(=O)N(CN2CCOCC2)C(=O)C1)N1CC(=O)N(CN2CCOCC2)C(=O)C1` [(1), meso-2,3-bis(4-morpholinomethyl-3,5-dioxopiperazin-1-yl)butane], for which the “ILS (rate of increase in life span)” value in data set [1] (daily dose 3.0 mg/kg) amounted to 165%. The IC50 in data set [2] is 61 nM. Also, in data set [3], the LD50 (as a rule, the dose at which mortality reaches 50%) at 336 h came out at 10.7 mg/kg.
Take `C[C@H]([C@H](C)N1CC(=O)N(CN2CCN(c3ccccc3)CC2)C(=O)C1)N1CC(=O)N(CN2CCN(c3ccccc3)CC2)C(=O)C1` [(3), meso-2,3-bis[4-(N-phenylpiperazinomethyl)-3,5-dioxopiperazin-1-yl]butane]: the “ILS (rate of increase in life span)” value in data set [1] (daily dose 3.4 mg/kg) is listed as 78%. In data set [2], the IC50 stood at 22 nM.
As to `C[C@H]([C@H](C)N1CC(=O)N(CN2CCCCC2)C(=O)C1)N1CC(=O)N(CN2CCCCC2)C(=O)C1` [(4), meso-2,3-bis(4-piperoidinomethyl-3,5-dioxopiperazin-1-yl)butane], the IC50 in data set [2] turned out to be 47 nM.
